The record followed here is US10780084B2, “Antibody-recruiting molecules for the treatment of cancer” (YALE UNIVERSITY, priority 2016, dated 2020).

The test deals with T1, recombinant uPAR (Homo sapiens, UniProt Q03405).
T1 construct: purchased R&D systems
Description: Competitive ELISA uPAR binding assay (displacement of uPAR from immobilized urokinase). As to conditions: for IC50 / Ki: ELISA assay, competition with urokinase for recombinant uPAR; for Ratio of IC50 (Compound)/IC50 6-ABT-1: relative to control 6-ABT-1. The procedure:
The affinity of derivatives are assayed using a competitive ELISA binding assay. The assay involves the immobilization of urokinase, a natural high affinity ligand for uPAR followed by the addition of a fixed concentration of recombinant uPAR protein and increasing concentrations of test compounds which competes with urokinase for binding to the uPA binding site of uPAR. Following several washing steps, the amount of uPAR bound is quantified by a biotinylated anti-uPAR antibody and avidin-HRP and can be fit to a competitive binding model allowing for determination of the uPAR/test compound Kd.
All derivatives were assessed for their ability to hind selectively to recombinant uPAR in vitro using a competitive ELISA binding assay. DMSO stock solutions of each derivative stored at −20° C. were titrated into wells pre-coated with human urokinase (isolated from human urine, ProSpec 1 mg/mL deionized water 18.5 μM) in the presence of uPAR. Selective binding to uPAR by compounds at the uPA binding site competes with uPAR-uPA binding which is required for a positive UV 450 nm absorbance signal. Increasing concentrations of test compound displace increasing amounts of uPAR from uPA which is detected by anti-uPAR/biotin labeled antibodies followed by avidin-HRP.
ELISA assay substantially as described above was used to test certain of the compounds of the present invention for biological characteristics. In addition, the compound 6-ABT-1 as described in WO2017/023994 was tested as a control.

T1 sequence (Q03405 23-305): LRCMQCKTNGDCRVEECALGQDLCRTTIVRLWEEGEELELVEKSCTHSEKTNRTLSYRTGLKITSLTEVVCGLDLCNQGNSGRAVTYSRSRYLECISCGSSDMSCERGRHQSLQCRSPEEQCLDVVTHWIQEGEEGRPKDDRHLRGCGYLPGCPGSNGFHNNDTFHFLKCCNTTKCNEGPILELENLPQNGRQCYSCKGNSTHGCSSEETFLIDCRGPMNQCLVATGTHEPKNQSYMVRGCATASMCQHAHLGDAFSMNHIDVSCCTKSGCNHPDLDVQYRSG

In the case of `O=C1c2ccccc2-c2onc3c(N4CCC(C(=O)NCCCOCCOCCOCCCNc5ccc([N+](=O)[O-])cc5[N+](=O)[O-])CC4)cc(Nc4ccc(S(=O)(=O)O)cc4S(=O)(=O)O)c1c23` [ARM-U2 derivative 6-ABT-5], the IC50 turned out to be 0.544 µM, the Ki was determined as 11 nM and the “Ratio of IC50 (Compound)/IC50 6-ABT-1” value came to 0.7.

Consider `O=C1c2ccccc2-c2onc3c(N4CCC(C(=O)NCCCOCCOCCOCCCNc5ccc([N+](=O)[O-])cc5[N+](=O)[O-])CC4)cc(Nc4ccc(S(=O)(=O)O)cc4)c1c23` [ARM-U2 derivative 7-ABT-5], for which the IC50 stood at 2.36 µM, the Ki amounted to 48.4 nM and the “Ratio of IC50 (Compound)/IC50 6-ABT-1” value was 1.15.

For `COc1ccc(Nc2cc(N3CCC(C(=O)NCCCOCCOCCOCCCNc4ccc([N+](=O)[O-])cc4[N+](=O)[O-])CC3)c3noc4c3c2C(=O)c2ccccc2-4)c(S(=O)(=O)O)c1` [ARM-U2 derivative 8-ABT-5], the concentration for half-maximal inhibition (IC50) came out at 0.54 µM, the inhibition constant Ki stood at 11 nM and the “Ratio of IC50 (Compound)/IC50 6-ABT-1” value is listed as 0.28.

Consider `O=C1c2ccccc2-c2onc3c(N4CCC(C(=O)NCCCOCCOCCOCCCNc5ccc([N+](=O)[O-])cc5[N+](=O)[O-])CC4)cc(Nc4ccc(Cl)cc4S(=O)(=O)O)c1c23` [ARM-U2 derivative 9-ABT-5], for which the IC50 was determined as 0.485 µM, the inhibition constant Ki was 9.84 nM and the “Ratio of IC50 (Compound)/IC50 6-ABT-1” value was determined as 0.255.

Turning to `COC(=O)c1ccc(Nc2cc(N3CCC(C(=O)NCCCOCCOCCOCCCNc4ccc([N+](=O)[O-])cc4[N+](=O)[O-])CC3)c3noc4c3c2C(=O)c2ccccc2-4)cc1` [ARM-U2 derivative 10-ABT-5], the IC50 is over 100 µM, the Ki is over 2000 nM and the “Ratio of IC50 (Compound)/IC50 6-ABT-1” value stood at 71.4.

Regarding `COC(=O)c1ccc(Nc2cc(N3CCC(C(=O)NCCCOCCOCCOCCCNc4ccc([N+](=O)[O-])cc4[N+](=O)[O-])CC3)c3noc4c3c2C(=O)c2ccccc2-4)c(C(=O)OC)c1` [ARM-U2 derivative 11-ABT-5], the half-inhibitory concentration (IC50) is over 100 µM, the inhibitory constant (Ki) was over 2000 nM and the “Ratio of IC50 (Compound)/IC50 6-ABT-1” value is reported as over 56.

As for `COC(=O)c1ccc(Nc2cc(N3CCC(C(=O)NCCCOCCOCCOCCCNc4ccc([N+](=O)[O-])cc4[N+](=O)[O-])CC3)c3noc4c3c2C(=O)c2ccccc2-4)c(Cl)c1` [ARM-U2 derivative 12-ABT-5], the IC50 was over 100 µM, the Ki is over 2000 nM and the “Ratio of IC50 (Compound)/IC50 6-ABT-1” value was 71.4.

Turning to `COC(=O)c1cc(Nc2cc(N3CCC(C(=O)NCCCOCCOCCOCCCNc4ccc([N+](=O)[O-])cc4[N+](=O)[O-])CC3)c3noc4c3c2C(=O)c2ccccc2-4)nn1C` [ARM-U2 derivative 13-ABT-5], the IC50 is over 100 µM, the Ki was over 2000 nM and the “Ratio of IC50 (Compound)/IC50 6-ABT-1” value is on record as 71.4.

Consider `NS(=O)(=O)c1ccc(Nc2cc(N3CCC(C(=O)NCCCOCCOCCOCCCNc4ccc([N+](=O)[O-])cc4[N+](=O)[O-])CC3)c3noc4c3c2C(=O)c2ccccc2-4)cc1` [ARM-U2 derivative 14-ABT-5], for which the concentration for half-maximal inhibition (IC50) is over 100 µM, the inhibition constant Ki is over 2000 nM and the “Ratio of IC50 (Compound)/IC50 6-ABT-1” value stood at 71.4.

For the molecule `O=C1c2ccccc2-c2onc3c(N4CCC(C(=O)NCCCOCCOCCOCCCNc5ccc([N+](=O)[O-])cc5[N+](=O)[O-])CC4)cc(Nc4cc(C5CC5)no4)c1c23` [ARM-U2 derivative 15-ABT-5], the IC50 is 18 µM, the Ki was 371 nM and the “Ratio of IC50 (Compound)/IC50 6-ABT-1” value was found to be 12.85.

Consider `CCOC(=O)c1cn(C)nc1Nc1cc(N2CCC(C(=O)NCCCOCCOCCOCCCNc3ccc([N+](=O)[O-])cc3[N+](=O)[O-])CC2)c2noc3c2c1C(=O)c1ccccc1-3` [ARM-U2 derivative 16-ABT-5], for which the IC50 came out at 55.2 µM, the Ki came out at 1140 nM and the “Ratio of IC50 (Compound)/IC50 6-ABT-1” value was found to be 39.41.

As for `COC(=O)c1cc(OC)ccc1Nc1cc(N2CCC(C(=O)NCCCOCCOCCOCCCNc3ccc([N+](=O)[O-])cc3[N+](=O)[O-])CC2)c2noc3c2c1C(=O)c1ccccc1-3` [ARM-U2 derivative 17-ABT-5], the IC50 is over 100 µM, the Ki is over 2000 nM and the “Ratio of IC50 (Compound)/IC50 6-ABT-1” value was over 31.

As to `O=C(O)c1cc(Cl)ccc1Nc1cc(N2CCC(C(=O)NCCCOCCOCCOCCCNc3ccc([N+](=O)[O-])cc3[N+](=O)[O-])CC2)c2noc3c2c1C(=O)c1ccccc1-3` [ARM-U2 derivative 18-ABT-5], the IC50 came out at 3.09 µM, the Ki was 63.5 nM and the “Ratio of IC50 (Compound)/IC50 6-ABT-1” value was determined as 0.98.

Consider `O=C1c2ccccc2-c2onc3c(N4CCC(C(=O)NCCCOCCOCCOCCCNc5ccc([N+](=O)[O-])cc5[N+](=O)[O-])CC4)cc(Nc4cc(S(=O)(=O)O)ccc4S(=O)(=O)O)c1c23` [ARM-U2 derivative 19-ABT-5], for which the concentration for half-maximal inhibition (IC50) turned out to be 2.57 µM, the Ki worked out at 52.7 nM and the “Ratio of IC50 (Compound)/IC50 6-ABT-1” value came to 0.81.
